Laboratory results taken from ChEMBL document CHEMBL4837235, “Cyclic Imine Pinnatoxin G is Cytotoxic to Cancer Cell Lines via Nicotinic Acetylcholine Receptor-Driven Classical Apoptosis” (2021).
The source made the active and inactive calls. The rule behind the calls is not given here.

Assays:
PC-3 [1] = experiment: Cytotoxicity against human PC-3 cells assessed as reduction in cell viability at 5 uM after 72 hrs by MTT assay; assay type: functional
MDA-MB-231 [2] = experiment: Cytotoxicity against human MDA-MB-231 cells assessed as reduction in cell viability at 5 uM after 72 hrs by MTT assay; assay type: functional
U-87 MG [3] = experiment: Cytotoxicity against human U87 cells assessed as reduction in cell viability at 5 uM after 72 hrs by MTT assay; assay type: functional, U-87MG ATCC
LN-18 [4] = experiment: Cytotoxicity against human LN-18 cells assessed as reduction in cell viability at 5 uM after 72 hrs by MTT assay; assay type: functional
[5] = Cytotoxicity against human U373 cells assessed as reduction in cell viability at 5 uM after 72 hrs by MTT assay; assay type: functional, U-373MG ATCC; conditions: U373 MG
HT-29 [6] = experiment: Cytotoxicity against human HT-29 cells assessed as reduction in cell viability at 5 uM after 72 hrs by MTT assay; assay type: functional
MDA-MB-231 [7] = experiment: Cell cycle arrest in human MDA-MB-231 cells assessed as accumulation of cells at G0/G1 phase at 5 uM after 72 hrs by propidium iodide staining based flow cytometric analysis (reference value: 57.7+/- 0.6%); assay type: functional
PC-3 [8] = experiment: Cell cycle arrest in human PC-3 cells assessed as accumulation of cells at G0/G1 phase at 5 uM after 72 hrs by propidium iodide staining based flow cytometric analysis (reference value: 59.7+/- 0.2%); assay type: functional
HT-29 [9] = experiment: Cell cycle arrest in human HT-29 cells assessed as accumulation of cells at S phase at 5 uM after 72 hrs by propidium iodide staining based flow cytometric analysis (reference value: 5.3+/- 0.4%); assay type: functional
HT-29 [10] = experiment: Cell cycle arrest in human HT-29 cells assessed as accumulation of cells at G2/M phase at 5 uM after 72 hrs by propidium iodide staining based flow cytometric analysis (reference value: 22.3+/- 0.4%); assay type: functional
MDA-MB-231 [11] = experiment: Cell cycle arrest in human MDA-MB-231 cells assessed as accumulation of cells at subG1 phase at 5 uM after 72 hrs by propidium iodide staining based flow cytometric analysis (reference value: 1.1+/- 0.1%); assay type: functional
HT-29 [12] = experiment: Cell cycle arrest in human HT-29 cells assessed as accumulation of cells at subG1 phase at 5 uM after 72 hrs by propidium iodide staining based flow cytometric analysis (reference value: 1.9+/- 0.1%); assay type: functional
PC-3 [13] = experiment: Cell cycle arrest in human PC-3 cells assessed as accumulation of cells at subG1 phase at 5 uM after 72 hrs by propidium iodide staining based flow cytometric analysis (reference value: 3.7+/- 0.2%); assay type: functional
MDA-MB-231 [14] = experiment: Induction of apoptosis in human MDA-MB-231 cells assessed as caspase activation using Ac-DEVD-AMC as substrate at 5 uM measured after 72 hrs by fluorometric assay relative to control; assay type: functional
PC-3 [15] = experiment: Induction of apoptosis in human PC-3 cells assessed as caspase activation using Ac-DEVD-AMC as substrate at 5 uM measured after 72 hrs by fluorometric assay relative to control; assay type: functional
HT-29 [16] = experiment: Induction of apoptosis in human HT-29 cells assessed as caspase activation using Ac-DEVD-AMC as substrate at 5 uM measured after 72 hrs by fluorometric assay relative to control; assay type: functional
MDA-MB-231 [17] = experiment: Induction of apoptosis in human MDA-MB-231 cells assessed as early apoptosis at 5 uM measured after 72 hrs by AnnexinV/propidium iodide staining based flow cytometry; assay type: functional
HT-29 [18] = experiment: Induction of apoptosis in human HT-29 cells assessed as early apoptosis at 5 uM measured after 72 hrs by AnnexinV/propidium iodide staining based flow cytometry; assay type: functional
PC-3 [19] = experiment: Induction of apoptosis in human PC-3 cells assessed as early apoptosis at 5 uM measured after 72 hrs by AnnexinV/propidium iodide staining based flow cytometry; assay type: functional
MDA-MB-231 [20] = experiment: Induction of mitochondrial membrane permeability in human MDA-MB-231 cells assessed as mitochondrial membrane permeability at 5 uM measured after 72 hrs by TMRE staining based analysis (reference value: 7%); assay type: functional
HT-29 [21] = experiment: Induction of mitochondrial membrane permeability in human HT-29 cells assessed as mitochondrial membrane permeability at 5 uM measured after 72 hrs by TMRE staining based analysis (reference value: 7%); assay type: functional
PC-3 [22] = experiment: Induction of mitochondrial membrane permeability in human PC-3 cells assessed as mitochondrial membrane permeability at 5 uM measured after 72 hrs by TMRE staining based analysis (reference value: 7%); assay type: functional
[23] = biological target: T1, Neuronal acetylcholine receptor (Homo sapiens) (UniProt P17787+P30926+P32297+P43681+Q15822+Q9UGM1+Q15825+P30532+P36544+Q9GZZ6+Q05901); experiment: Antagonist activity at nAChR in human MDA-MB-231 cells assessed as reduction cytoplasmic free calcium level at 5 uM measured upto 6 hrs by Fura2-AM dye based fluorescence assay; assay type: cell-based; conditions: time hrs <=6
[24] = biological target: T1, Neuronal acetylcholine receptor (Homo sapiens); experiment: Antagonist activity at nAChR in human HT-29 cells assessed as reduction in cytoplasmic free calcium level at 5 uM measured upto 6 hrs by Fura2-AM dye based fluorescence assay; assay type: cell-based; conditions: time hrs <=6
[25] = biological target: T1, Neuronal acetylcholine receptor (Homo sapiens); experiment: Antagonist activity at nAChR in human PC-3 cells assessed as reduction in cytoplasmic free calcium level at 5 uM measured upto 6 hrs by Fura2-AM dye based fluorescence assay; assay type: cell-based; conditions: time hrs <=6
N2a = experiment: Cytotoxicity against mouse Neuro2a cells assessed as cell viability at 0.46 uM measured after 72 hrs by MTT assay; assay type: functional, cell-based
Caco-2 = experiment: Cytotoxicity against human Caco-2 cells assessed as cell viability at 0.46 uM measured after 72 hrs by MTT assay; assay type: functional, cell-based
HeLa = experiment: Cytotoxicity against human HeLa cells assessed as loss of cell viability at 5.76 uM measured after 72 hrs by MTT assay; assay type: functional
MDA-MB-231 [26] = experiment: Cell cycle arrest in human MDA-MB-231 cells assessed as decrease in accumulation of cells at G2/M phase at 5 uM after 72 hrs by propidium iodide staining based flow cytometric analysis; assay type: functional
PC-3 [27] = experiment: Cell cycle arrest in human PC-3 cells assessed as decrease in accumulation of cells at G2/M phase at 5 uM after 72 hrs by propidium iodide staining based flow cytometric analysis; assay type: functional
PC-3 [28] = experiment: Cytotoxicity against human PC-3 cells assessed as reduction in cell viability at 5 uM after 48 to 72 hrs by MTT assay; assay type: functional, cell-based; conditions: time 48-72 hrs
MDA-MB-231 [29] = experiment: Cytotoxicity against human MDA-MB-231 cells assessed as reduction in cell viability at 5 uM after 48 to 72 hrs by MTT assay; assay type: functional, cell-based; conditions: time 48-72 hrs
U-87 MG [30] = experiment: Cytotoxicity against human U87 cells assessed as reduction in cell viability at 5 uM after 24 to 72 hrs by MTT assay; assay type: functional, cell-based; conditions: U-87MG ATCC, time 24-72 hrs
LN-18 [31] = experiment: Cytotoxicity against human LN-18 cells assessed as reduction in cell viability at 5 uM after 24 to 72 hrs by MTT assay; assay type: functional, cell-based; conditions: time 24-72 hrs
U-373MG ATCC = experiment: Cytotoxicity against human U373 cells assessed as reduction in cell viability at 5 uM after 24 to 72 hrs by MTT assay; assay type: functional, cell-based; conditions: time 24-72 hrs
HT-29 [32] = experiment: Cytotoxicity against human HT-29 cells assessed as reduction in cell viability at 5 uM after 24 to 72 hrs by MTT assay; assay type: functional, cell-based; conditions: time 24-72 hrs
PC-3 [33] = experiment: Cytotoxicity against human PC-3 cells assessed as reduction in cell viability at 5 uM after 24 hrs by MTT assay; assay type: functional, cell-based
MDA-MB-231 [34] = experiment: Cytotoxicity against human MDA-MB-231 cells assessed as reduction in cell viability at 5 uM after 24 hrs by MTT assay; assay type: functional, cell-based

**Q.** With C=CC1=C[C@@H]2[C@@H]3O[C@]4(C[C@H]5CCC[C@@]6(CC[C@@]7(O[C@@H](CC[C@@]7(C)O)CC(=C)CCCC7=NC[C@H](C)[C@@H](C)C[C@@]72CC1)O6)O5)C[C@@H](C)[C@@H](O)[C@H]3O4 as the compound, how does the inhibition at 5 µM (PC-3 [1]) read?
**A.** 30%

**Q.** What about the inhibition at 5 µM (MDA-MB-231 [2]) of the same compound?
**A.** 30%

**Q.** And the inhibition at 5 µM (U-87 MG [3])?
**A.** 30%

**Q.** And the inhibition at 5 µM (LN-18 [4])?
**A.** 50%

**Q.** And the inhibition at 5 µM [5]?
**A.** 50%

**Q.** And the inhibition at 5 µM (HT-29 [6])?
**A.** 50%

**Q.** And the Activity (MDA-MB-231 [7])?
**A.** 62.4%

**Q.** And the Activity (PC-3 [8])?
**A.** 65.4%

**Q.** What about the Activity (HT-29 [9]) of the same compound?
**A.** 8%

**Q.** What about the Activity (HT-29 [10]) of the same compound?
**A.** 32.5%

**Q.** What about the Activity (MDA-MB-231 [11]) of the same compound?
**A.** 4.5%

**Q.** What about the Activity (HT-29 [12]) of the same compound?
**A.** 5.5%

**Q.** And the Activity (PC-3 [13])?
**A.** 9.7%

**Q.** What about the “fold change (FC)” value (MDA-MB-231 [14]) of the same compound?
**A.** 5.5

**Q.** What about the “fold change (FC)” value (PC-3 [15]) of the same compound?
**A.** 5.5

**Q.** And the “fold change (FC)” value (HT-29 [16])?
**A.** 10.5

**Q.** And the Activity (MDA-MB-231 [17])?
**A.** 13.7%

**Q.** And the Activity (HT-29 [18])?
**A.** 10.7%

**Q.** What about the Activity (PC-3 [19]) of the same compound?
**A.** 13.9%

**Q.** And the Activity (MDA-MB-231 [20])?
**A.** 14.8%

**Q.** What about the Activity (HT-29 [21]) of the same compound?
**A.** 17.9%

**Q.** What about the Activity (PC-3 [22]) of the same compound?
**A.** 13.8%

**Q.** What about the inhibition [23] of the same compound?
**A.** 23.6%

**Q.** And the inhibition [24]?
**A.** 16.2%

**Q.** What about the inhibition [25] of the same compound?
**A.** 14.2%

**Q.** What about the Activity (N2a) of the same compound?
**A.** inactive

**Q.** What about the Activity (Caco-2) of the same compound?
**A.** inactive

**Q.** And the Activity (HeLa)?
**A.** 27%

**Q.** And the Activity (MDA-MB-231 [26])?
**A.** Active

**Q.** What about the Activity (PC-3 [27]) of the same compound?
**A.** Active

**Q.** What about the Activity (PC-3 [28]) of the same compound?
**A.** Active

**Q.** What about the Activity (MDA-MB-231 [29]) of the same compound?
**A.** Active

**Q.** And the Activity (U-87 MG [30])?
**A.** Active

**Q.** What about the Activity (LN-18 [31]) of the same compound?
**A.** Active

**Q.** What about the Activity (U-373MG ATCC) of the same compound?
**A.** Active

**Q.** And the Activity (HT-29 [32])?
**A.** Active

**Q.** What about the Activity (PC-3 [33]) of the same compound?
**A.** inactive

**Q.** And the Activity (MDA-MB-231 [34])?
**A.** inactive
